# Assay results: patent US11130733B2, “4-OXO-alkylated tetramic acid compound, preparation method and use thereof” (BEIJING JOEKAI BIOTECH. LLC, priority 2017, dated 2021)
# Tests used:
# [1] = test system: Salmonella typhimurium TA98; experiment: Mini Ames experiment, strain TA98; assay type: cell-based
# Procedure: Histidine auxotrophic strains of Salmonella typhimurium were cultured in a special medium with quite a low content of histidine. The strains were difficult to divide due to lack of nutrition. If a test compound has mutagenicity, a large number of cells will undergo reverse mutation, synthesizing histidine by themselves and developing into colonies visible to the naked eye. In view of the close relationship between mutagenicity and carcinogenesis of chemicals, this method has been widely used in screening carcinogens. Some chemicals need metabolic activation to induce mutagenicity. Mammalian microsomal enzyme S9 can be added into the test system to eliminate the influence of metabolic activation on generation of mutagenicity.
# […] Mini Ames test with compound 50561
# hERG potassium channel = hERG potassium channel (Homo sapiens, UniProt Q12809); experiment: hERG current, whole-cell patch clamp on HEK-hERG stable cell line; assay type: cell-based
# Chain of hERG potassium channel (Q12809 whole entry): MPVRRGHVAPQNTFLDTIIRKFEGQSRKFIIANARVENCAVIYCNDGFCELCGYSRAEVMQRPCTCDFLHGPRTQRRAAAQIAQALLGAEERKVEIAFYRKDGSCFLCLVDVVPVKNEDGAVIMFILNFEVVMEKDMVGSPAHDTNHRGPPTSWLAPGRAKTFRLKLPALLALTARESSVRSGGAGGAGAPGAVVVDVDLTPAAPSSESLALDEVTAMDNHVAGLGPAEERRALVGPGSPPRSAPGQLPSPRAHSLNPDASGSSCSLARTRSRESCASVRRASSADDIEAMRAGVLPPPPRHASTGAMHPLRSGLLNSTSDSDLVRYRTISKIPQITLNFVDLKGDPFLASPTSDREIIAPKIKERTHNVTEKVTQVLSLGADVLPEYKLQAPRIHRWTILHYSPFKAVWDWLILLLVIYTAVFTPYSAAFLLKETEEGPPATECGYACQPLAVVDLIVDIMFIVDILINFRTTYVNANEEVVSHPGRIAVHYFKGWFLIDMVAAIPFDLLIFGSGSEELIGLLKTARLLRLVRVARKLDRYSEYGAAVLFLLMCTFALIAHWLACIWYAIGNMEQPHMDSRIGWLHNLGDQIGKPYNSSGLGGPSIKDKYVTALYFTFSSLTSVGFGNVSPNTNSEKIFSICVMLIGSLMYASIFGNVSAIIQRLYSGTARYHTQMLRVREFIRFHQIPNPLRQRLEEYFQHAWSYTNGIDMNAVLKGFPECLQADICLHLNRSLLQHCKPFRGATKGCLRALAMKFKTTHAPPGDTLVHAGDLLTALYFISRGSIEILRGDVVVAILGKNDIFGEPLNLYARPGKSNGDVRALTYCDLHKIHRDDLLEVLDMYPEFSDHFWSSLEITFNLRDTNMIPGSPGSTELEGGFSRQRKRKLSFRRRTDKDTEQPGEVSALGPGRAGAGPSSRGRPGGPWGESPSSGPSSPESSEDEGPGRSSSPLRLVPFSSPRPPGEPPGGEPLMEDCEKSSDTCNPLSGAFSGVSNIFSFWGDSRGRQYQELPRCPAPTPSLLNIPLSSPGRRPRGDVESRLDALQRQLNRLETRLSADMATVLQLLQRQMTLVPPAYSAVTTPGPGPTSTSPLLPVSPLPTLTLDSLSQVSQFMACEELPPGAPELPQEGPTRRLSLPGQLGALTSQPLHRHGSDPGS
# Source text: Rapidly activated human delayed rectifier outward potassium current (IKr) is mainly mediated by hERG ion channels, and participates in human cardiomyocyte repolarization. Pharmaceutical blockade of this current is the main cause of prolonged QT syndrome, even acute arrhythmia and sudden death clinically.
# In this experiment, a stable cell line HEK-hERG (from the Academy of Military Medical Sciences) was selected, and the whole-cell patch clamp technique was used to record the hERG current. Cell suspension was collected and added to a 35 mm culture dish, which was placed on an inverted microscope carrier. After cell attachment, perfusion was performed with an extracellular fluid at a flow rate of 1-2 mL/min. A glass microelectrode was drawn in two steps by a micropipette puller, and after filling with electrode inner fluid, the water resistance of the glass microelectrode was 2-5 MΩ. After the whole cell recording mode was established, the clamping potential was maintained to −80 mV. A depolarization voltage was exerted to +60 mV for 850 ms, followed by repolarization to −50 mV for 1275 ms to induce an hERG tail current. After current stabilization, continuous extracellular perfusion administration from a low concentration to a high concentration was adopted. Starting from the low concentration, continuous perfusion was performed until the efficacy was stable, followed by perfusion of the next concentration. When the inhibitory rate of a compound or positive control to the hERG current was less than 50%, the CV of each of five consecutive current values was less than 10%. When the inhibitory rate of a compound or positive control to the hERG current was more than 50% but less than 70%, the CV of each of five consecutive current values was less than 20%. If a current amplitude was reduced by less than 200 pA, or if the inhibitory rate was more than 70%, the CV of each of five consecutive current values was less than 30%.
# A certain amount of a test sample was weighed and dissolved into DMSO to prepare a 30 mM stock solution. Prior to the experiment, the above stock solution was diluted by DMSO 10 times and 3 times step by step, and then the solution was diluted by extracellular fluid to a required concentration. The solution at working concentration should be checked for precipitation before use. If precipitation existed, the stock solution would be diluted to increase the final concentration of DMSO in the extracellular fluid. However, the final concentration of DMSO in the extracellular fluid would not exceed 0.5%. Continuous perfusion from low to high concentrations was done during the experiment. The half inhibitory concentration (IC50) of the test sample was obtained by the best fitting of Logistic equation.
# When data were processed, stimulus release and signal acquisition were carried out by the software patchmaster; and a patch clamp amplifier amplified the signal and filtered it to 10 KHz. Fitmaster, excel, spass 21.0, and the like were used for further data analysis and curve fitting. The data were shown as mean values±standard deviation. In data processing, when the blocking effect on hERG was determined, the peak value of a tail current and its baseline were corrected. The inhibitory rates of the tail current were used to show the effects of various compounds at different concentrations. The inhibitory rate=100×(the peak value of the tail current before administration−the peak value of the tail current after administration)/the peak value of the tail current before administration %. IC50 values were fitted by the Hill equation:
# [formula] wherein, y: I/Icontrol; max: 100%; min: 0%; [drug]: concentration of the test sample; nH: Hill slope; IC50: maximum half inhibition concentration of the test substance.
# To induce a peak current of hERG tail current, the clamping potential was maintained at −80 mV, depolarized to 60 mV for 0.85 s, and then repolarized to −50 mV for 1.275 s. […]
# [2] = test system: Drosophilae containing and expressing human Abeta42 gene; experiment: Pavlov's olfactory-related instantaneous memory test in Drosophila; assay type: in vivo; settings: test medicament 100 μM, 50 μL per 100 drosophilae, 7 consecutive days; FIG. 1 and FIG. 2
# Source text: Drosophila has a classical learning and memory paradigm, known as Pavlov's olfactory-related instantaneous memory. During the training program, a group of about 100 drosophilae were exposed sequentially to two odors, i.e., 3-octanol and 4-methylcyclohexanol, each odor for 60 seconds, and to fresh air for 45 seconds therebetween. During exposure to the first odor, the drosophilae were electrocuted on their feet (1.5-second pulses at 3.5-second intervals, 60V), while no electrocution was exerted during exposure to the second odor. In order to detect “instantaneous memory” (also known as “learning”), drosophilae were transferred to the selection area in the T maze immediately after training and forced to choose between the two odors. The drosophilae in each T-maze arm were then captured, anesthetized, and counted. The behavior index was calculated from the distribution of drosophilae in the T maze. […] In each experiment, the age of the control group was matched with that of the experimental group.
# Pharmacodynamic evaluation of the candidate compounds: Drosophilae containing and expressing human Abeta42 gene were selected as a diseased control, and drosophilae containing but not expressing human Abeta42 gene were selected as a healthy control. The day after emergence of the drosophilae, male drosophilae were selected and fed. Starting from the third day, drosophilae were fed with a test medicament (100 μM, 50 μL per 100 drosophilae) for 7 consecutive days, 4 hours each day. The above memory test was performed on the drosophilae on the tenth day.
# [3] = TA98, With Metabolic Activation, 1.5 μg per well
# [4] = TA98, With Metabolic Activation, 4 μg per well
# [5] = TA98, With Metabolic Activation, 10 μg per well
# [6] = TA98, With Metabolic Activation, 25 μg per well
# [7] = TA98, With Metabolic Activation, 64 μg per well
# [8] = TA98, With Metabolic Activation, 160 μg per well
# [9] = TA98, With Metabolic Activation, 400 μg per well
# [10] = TA98, With Metabolic Activation, 1000 μg per well
# [11] = TA98, Without Metabolic Activation, 1.5 μg per well
# [12] = TA98, Without Metabolic Activation, 4 μg per well
# [13] = TA98, Without Metabolic Activation, 10 μg per well
# [14] = TA98, Without Metabolic Activation, 25 μg per well
# [15] = TA98, Without Metabolic Activation, 64 μg per well
# [16] = TA98, Without Metabolic Activation, 160 μg per well
# [17] = TA98, Without Metabolic Activation, 400 μg per well
# [18] = TA98, Without Metabolic Activation, 1000 μg per well
# [19] = human, Inhibitory effect, Mean value ± standard deviation
# [20] = human, Inhibitory effect, individual cells 1-4
smiles,measurement,setting,value
O=C1C=C(OCc2ccc(F)cc2)[C@H](Cc2ccccc2)N1 [Compound 50561],Mean Revertants Per Well,[1]; [3],8.67
same,Ratio Treated/Solvent,[1]; [3],1.04
same,Mean Revertants Per Well,[1]; [4],13.33
same,Ratio Treated/Solvent,[1]; [4],1.60
same,Mean Revertants Per Well,[1]; [5],9.33
same,Ratio Treated/Solvent,[1]; [5],1.12
same,Mean Revertants Per Well,[1]; [6],12.67
same,Ratio Treated/Solvent,[1]; [6],1.52
same,Mean Revertants Per Well,[1]; [7],12.33
same,Ratio Treated/Solvent,[1]; [7],1.48
same,Mean Revertants Per Well,[1]; [8],7.00
same,Ratio Treated/Solvent,[1]; [8],0.84
same,Mean Revertants Per Well,[1]; [9],0.00
same,Ratio Treated/Solvent,[1]; [9],0.00
same,Mean Revertants Per Well,[1]; [10],0.00
same,Ratio Treated/Solvent,[1]; [10],0.00
same,Mean Revertants Per Well,[1]; [11],9.00
same,Ratio Treated/Solvent,[1]; [11],1.32
same,Mean Revertants Per Well,[1]; [12],8.00
same,Ratio Treated/Solvent,[1]; [12],1.17
same,Mean Revertants Per Well,[1]; [13],8.00
same,Ratio Treated/Solvent,[1]; [13],1.17
same,Mean Revertants Per Well,[1]; [14],8.33
same,Ratio Treated/Solvent,[1]; [14],1.22
same,Mean Revertants Per Well,[1]; [15],7.33
same,Ratio Treated/Solvent,[1]; [15],1.07
same,Mean Revertants Per Well,[1]; [16],7.33
same,Ratio Treated/Solvent,[1]; [16],1.07
same,Mean Revertants Per Well,[1]; [17],0.00
same,Ratio Treated/Solvent,[1]; [17],0.00
same,Mean Revertants Per Well,[1]; [18],0.00
same,Ratio Treated/Solvent,[1]; [18],0.00|
same,mutagenicity,"[1]; TA98, presence or absence of S9",no obvious mutagenicity
same,Hill coefficient,"hERG potassium channel; Hill equation fit, N=4",1.01
same,IC50,hERG potassium channel; human,26.7 µM
same,inhibition at 300 nM,hERG potassium channel; [19],0.84 ± 3.93%
same,inhibition at 1 µM,hERG potassium channel; [19],3.43 ± 4.42%
same,inhibition at 3 µM,hERG potassium channel; [19],11.3 ± 4.09%
same,inhibition at 10 µM,hERG potassium channel; [19],25.7 ± 1.31%
same,inhibition at 30 µM,hERG potassium channel; [19],53.6 ± 3.6%
same,inhibition at 10 µM,hERG potassium channel; [20],24.1%
same,inhibition at 30 µM,hERG potassium channel; [20],59.6%
same,ability to improve the learning and memory of drosophilae,[2],best ability to improve the learning and memory of drosophilae
